Data taken from ChEMBL document CHEMBL1124314, “Development of phosphonate derivatives of gadolinium chelates for NMR imaging of calcified soft tissues” (J Med Chem, 1989).

Experiments:
Rattus norvegicus [1] = organism: Rattus norvegicus; assay: Biodistribution in rat heart in the presence of NCA Gd/0.01 M lip; type: ADME, organism-based; details: in vivo
Rattus norvegicus [2] = assay: Biodistribution in rat s. intestine in the presence of 50 Gd/kg at 2 hr; type: ADME, organism-based; details: in vivo
Rattus norvegicus [3] = organism: Rattus norvegicus; assay: Biodistribution in rat liver in the presence of NCA Gd/0.01 M lip; type: ADME, organism-based; details: in vivo
Rattus norvegicus [4] = organism: Rattus norvegicus; assay: Biodistribution in rat bone in the presence of NCA Gd/0.01 M lip; type: ADME, organism-based, Bone element; details: in vivo
Rattus norvegicus [5] = assay: Biodistribution in rat stomach in the presence of 50 Gd/kg at 2 hr; type: ADME, organism-based; details: in vivo
Rattus norvegicus [6] = assay: Biodistribution in rat blood in the presence of 50 Gd/kg at 6 hr; type: ADME, organism-based; details: in vivo
Rattus norvegicus [7] = organism: Rattus norvegicus; assay: Biodistribution in rat heart in the presence of 0.05 M Gd/0.15 M lig; type: ADME, organism-based; details: in vivo
Rattus norvegicus [8] = organism: Rattus norvegicus; assay: Biodistribution in rat liver by in the presence of 0.05 M Gd/0.15 M lig; type: ADME, organism-based; details: in vivo
Rattus norvegicus [9] = organism: Rattus norvegicus; assay: Biodistribution in rat blood in the presence of 0.05 M Gd/0.15 M lig; type: ADME, organism-based; details: in vivo
Rattus norvegicus [10] = organism: Rattus norvegicus; assay: Biodistribution in rat kidney in the presence of NCA Gd/0.01 M lip; type: ADME, organism-based; details: in vivo
Rattus norvegicus [11] = assay: Biodistribution in rat liver by in the presence 50 Gd/kg at 15 min; type: ADME, organism-based; details: in vivo, 0.25 h
Rattus norvegicus [12] = organism: Rattus norvegicus; assay: Biodistribution in rat l. intestine in the presence of 0.01 M carrier at 1 hr; type: ADME, organism-based; details: in vivo
Rattus norvegicus [13] = organism: Rattus norvegicus; assay: Biodistribution in rat kidney in the presence of 0.05 M Gd/0.15 M lig; type: ADME, organism-based; details: in vivo
Rattus norvegicus [14] = assay: Biodistribution in rat spleen in the presence of 50 Gd/kg at 6 hr; type: ADME, organism-based; details: in vivo
Rattus norvegicus [15] = assay: Biodistribution in rat l. intestine in the presence of 50 Gd/kg at 2 hr; type: ADME, organism-based; details: in vivo
Rattus norvegicus [16] = assay: Biodistribution in rat s. intestine in the presence of 50 Gd/kg at 6 hr; type: ADME, organism-based; details: in vivo
Rattus norvegicus [17] = assay: Biodistribution in rat spleen in the presence of 50 Gd/kg at 15 min; type: ADME, organism-based; details: in vivo, 0.25 h
Rattus norvegicus [18] = organism: Rattus norvegicus; assay: Biodistribution in rat blood in the presence of NCA Gd/0.01 M lip; type: ADME, organism-based; details: in vivo
Rattus norvegicus [19] = organism: Rattus norvegicus; assay: Biodistribution in rat s. intestine in the presence of NCA (No carrier added); type: ADME, organism-based; details: in vivo
Rattus norvegicus [20] = assay: Biodistribution in rat blood in the presence of 50 Gd/kg at 2 hr; type: ADME, organism-based; details: in vivo
Rattus norvegicus [21] = organism: Rattus norvegicus; assay: Biodistribution in rat muscle in the presence of NCA Gd/0.01 M lip; type: ADME, organism-based, Muscle tissue; details: in vivo
Rattus norvegicus [22] = assay: Biodistribution in rat blood in the presence of 50 Gd/kg at 15 min; type: ADME, organism-based; details: in vivo, 0.25 h
Rattus norvegicus [23] = organism: Rattus norvegicus; assay: Biodistribution in rat bone in the presence of 0.05 M Gd/0.15 M lig; type: ADME, organism-based, Bone element; details: in vivo
Rattus norvegicus [24] = organism: Rattus norvegicus; assay: Biodistribution in rat muscle in the presence of 0.05 M Gd/0.15 M lig; type: ADME, organism-based, Muscle tissue; details: in vivo
Rattus norvegicus [25] = assay: Biodistribution in rat liver in the presence of 50 Gd/kg at 6 hr; type: ADME, organism-based; details: in vivo
Rattus norvegicus [26] = assay: Biodistribution in rat stomach in the presence of 50 Gd/kg at 15 min; type: ADME, organism-based; details: in vivo, 0.25 h
Rattus norvegicus [27] = assay: Biodistribution in rat spleen in the presence of 50 Gd/kg at 2 hr; type: ADME, organism-based; details: in vivo
Rattus norvegicus [28] = assay: Biodistribution in rat l. intestine in the presence of 50 Gd/kg at 6 hr; type: ADME, organism-based; details: in vivo
Rattus norvegicus [29] = assay: Biodistribution in rat liver in the presence of 50 Gd/kg at 2 hr; type: ADME, organism-based; details: in vivo
Rattus norvegicus [30] = organism: Rattus norvegicus; assay: Biodistribution in rat spleen in the presence of NCA Gd/0.01 M lip; type: ADME, organism-based; details: in vivo

Structure (SMILES): CC(C(=O)O)C(C(=O)O)(P(=O)(O)O)P(=O)(O)O (stereo not given)
- ID/organ (Rattus norvegicus [1]): 0.099%
- ID/organ (Rattus norvegicus [2]): 1.03%
- ID/organ (Rattus norvegicus [3]): 67.3%
- ID/organ (Rattus norvegicus [4]): 6.91%
- ID/organ (Rattus norvegicus [5]): 0.178%
- ID/organ (Rattus norvegicus [6]): 0.217%
- ID/organ (Rattus norvegicus [7]): 0.059%
- ID/organ (Rattus norvegicus [8]): 73%
- ID/organ (Rattus norvegicus [9]): 0.319%
- ID/organ (Rattus norvegicus [10]): 0.339%
- ID/organ (Rattus norvegicus [11]): 34.2%
- ID/organ (Rattus norvegicus [12]): 0.138%
- ID/organ (Rattus norvegicus [13]): 0.447%
- ID/organ (Rattus norvegicus [14]): 8.12%
- ID/organ (Rattus norvegicus [15]): 0.334%
- ID/organ (Rattus norvegicus [16]): 0.675%
- ID/organ (Rattus norvegicus [17]): 11.2%
- ID/organ (Rattus norvegicus [18]): 2.62%
- ID/organ (Rattus norvegicus [19]): 0.86%
- ID/organ (Rattus norvegicus [20]): 0.26%
- ID/organ (Rattus norvegicus [21]): 2.38%
- ID/organ (Rattus norvegicus [22]): 23.4%
- ID/organ (Rattus norvegicus [23]): 1.18%
- ID/organ (Rattus norvegicus [24]): 0.124%
- ID/organ (Rattus norvegicus [25]): 80.2%
- ID/organ (Rattus norvegicus [26]): 0.221%
- ID/organ (Rattus norvegicus [27]): 12.5%
- ID/organ (Rattus norvegicus [28]): 0.293%
- ID/organ (Rattus norvegicus [29]): 74.3%
- ID/organ (Rattus norvegicus [30]): 2.67%
